In patent US11897880B2, “7,8-dihydrobenzo[e]pyrido[3,4-c]azocine-2,5(3H,6H)-dione derivatives useful as a factor XIa inhibitors” (Janssen Pharmaceutica NV, priority 2021, dated 2024) one finds Ki and IC50 data, which are given here for 9 compounds.

The target in one test is Factor XIa (Homo sapiens, UniProt P03951). Put plainly: Factor XIa inhibition assay utilizing a fluorophore-quencher pair peptide substrate (FLINT). The settings on record: for Ki: read-out: FXIa Ki; for IC50: read-out: FXIa IC50. It is filed as biochemical. From the text: Biological Example 1: Factor XIa Inhibition Assay Utilizing a Fluorophore-Quencher Pair Peptide Substrate
Chain of Factor XIa (P03951 388-625 limits assumed): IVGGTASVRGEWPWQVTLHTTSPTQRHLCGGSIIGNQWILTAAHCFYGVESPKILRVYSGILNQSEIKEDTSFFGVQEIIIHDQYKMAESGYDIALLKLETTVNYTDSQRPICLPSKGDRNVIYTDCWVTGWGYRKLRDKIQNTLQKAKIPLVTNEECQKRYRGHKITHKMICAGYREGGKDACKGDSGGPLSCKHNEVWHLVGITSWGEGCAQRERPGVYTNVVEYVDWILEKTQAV
Chain of Factor XIa (P03951 19-387 partner limits assumed): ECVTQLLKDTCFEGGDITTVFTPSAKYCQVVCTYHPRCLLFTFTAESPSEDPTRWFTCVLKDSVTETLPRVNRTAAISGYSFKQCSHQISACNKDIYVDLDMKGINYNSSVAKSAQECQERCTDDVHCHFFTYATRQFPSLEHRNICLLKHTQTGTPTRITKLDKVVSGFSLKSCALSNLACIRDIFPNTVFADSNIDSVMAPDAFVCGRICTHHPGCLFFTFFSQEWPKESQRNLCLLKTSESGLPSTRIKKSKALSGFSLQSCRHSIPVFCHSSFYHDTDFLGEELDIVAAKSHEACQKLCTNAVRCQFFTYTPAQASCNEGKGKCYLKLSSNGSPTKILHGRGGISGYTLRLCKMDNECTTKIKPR
A fluorescence intensity (FLINT) based assay was used to monitor inhibition of Factor XIa. The peptide substrate, 5Fam-KLTRAETV-K5Tamra (purchased from New England Peptide) was chosen based on the FXI sequence. Conversion of zymogen FXI to its activated form, FXIa, occurs by proteolytic cleavage by […] at two sites, Arg146 and Arg180. The custom peptide used in this assay was based on the Arg146 cleavage site of FXI. The peptide substrate was designed with a fluorophore-quencher pair, where the fluorescence is quenched until FXIa cleaves the 8-mer peptide after the Arg residue.
The Factor XIa FLINT assay was used with the following 5Fam-KLTRAETV-K5Tamra assay buffer: 50 mM Tris, pH 7.5, 100 mM NaCl, 5 mM CaCl2), 0.1 mg/mL BSA, 0.03% CHAPS. Assay buffer was prepared by mixing all ingredients fresh. 5Fam-KLTRAETV-K5Tamra peptide substrate was first prepared at 10 mM in 100% DMSO, then diluted to 3 mM in 100% DMSO. Assay buffer was then added directly to the 3 mM stock of substrate to prepare the 30 μM 2× working concentration (15 μM final concentration). The 2× Factor XIa stock solution was prepared by diluting 6.562 μM stock in 1× assay buffer for a […].
Test compound(s) were run in an 11-point, 3-fold serial dilution with a final top compound concentration of 100 nM. Final DMSO in assay was 2%. FXIa was preincubated with compound for 30-minutes and then substrate was added to initiate the reaction. The assay was run with kinetic (KIN) reads at 5 min intervals over 30 minutes. The time course was linear using […] FXIa greater than 30 minutes. More specifically, the assay was run as follows: • 100 nL of 0.01 mM test compound was dispensed into black 384-well non-binding Greiner BioOne 784900 plate for 0.1 μM final concentration; • 5 μL of 1× assay buffer was dispensed to column 24 (low control) and 5 μL 2× Factor XIa solution was dispensed to columns 1-23 (column 23 high control); • the plate was centrifuged with a “cover” plate at 500 rpm for 1 min • the plate was pre-incubated for 30 minutes at room temperature with plate covered; • 5 μL of 2×5Fam-KLTRAETV-K5Tamra peptide substrate was dispensed into the entire plate, columns 1-24; • the plate was centrifuged with a “cover” plate at 500 rpm for 1 min; • the plate was read monitoring fluorescence intensity on the BMG PHERAStar at room temperature, using fluorescence module 485 nm/520 nm.
Percent inhibition (IC50) curves were generated per compound tested, and data was analyzed using a 4-parameter logistic fit using GeneData Screener. The relative fluorescence unit (RFU) values were normalized to percent inhibition using the following equation: % inhibition=((HC−LC)−(compound−LC)/(HC−LC))*100
where LC−low control=mean signal of no Factor XIa or 100% inhibition of Factor XIa; HC−high control=mean signal of Factor XIa+5Fam-KLTRAETV-K5Tamra peptide substrate with DMSO only.
An 11-point dose response curve for the test compound(s) was generated using GENDATA to determine IC50 value based on the following equation: Y=Bottom+(Top−Bottom)/(1+10^((log IC50−X)*HillSlope))
where Y is the % inhibition in the presence of X inhibitor concentration, Top=high control=mean signal of Factor XIa+5Fam-KLTRAETV-K5Tamra peptide substrate with DMSO only; Bottom=low control−mean signal of no Factor XIa or 100% inhibition of Factor XIa; HillSlope−Hill coefficient; and IC50=concentration of compound with 50% inhibition in relation to top/high control.
(§1) Representative compounds of formula (I) of the present invention were tested according to the procedure described in Biological Example 1 and Biological Example 2 above, with results as listed in Table 3, below.

A further test deals with human plasma kallikrein (Homo sapiens, UniProt P03952). The test can be described thus: Kallikrein inhibition assay utilizing a quenched AMC peptide substrate (FLINT). It is filed as biochemical. The settings on record: 30 min preincubation, 50 μM Z-Gly-Pro-Arg-AMC, 2 nM kallikrein.
Chain of human plasma kallikrein (P03952 391-638 limits assumed): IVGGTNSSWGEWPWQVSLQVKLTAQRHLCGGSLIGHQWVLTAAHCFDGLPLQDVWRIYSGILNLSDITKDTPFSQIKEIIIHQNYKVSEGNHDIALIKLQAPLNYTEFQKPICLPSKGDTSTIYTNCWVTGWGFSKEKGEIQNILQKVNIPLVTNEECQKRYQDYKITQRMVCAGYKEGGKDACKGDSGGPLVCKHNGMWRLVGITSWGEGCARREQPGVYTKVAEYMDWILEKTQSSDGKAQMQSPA
Chain of human plasma kallikrein (P03952 20-390 partner limits assumed): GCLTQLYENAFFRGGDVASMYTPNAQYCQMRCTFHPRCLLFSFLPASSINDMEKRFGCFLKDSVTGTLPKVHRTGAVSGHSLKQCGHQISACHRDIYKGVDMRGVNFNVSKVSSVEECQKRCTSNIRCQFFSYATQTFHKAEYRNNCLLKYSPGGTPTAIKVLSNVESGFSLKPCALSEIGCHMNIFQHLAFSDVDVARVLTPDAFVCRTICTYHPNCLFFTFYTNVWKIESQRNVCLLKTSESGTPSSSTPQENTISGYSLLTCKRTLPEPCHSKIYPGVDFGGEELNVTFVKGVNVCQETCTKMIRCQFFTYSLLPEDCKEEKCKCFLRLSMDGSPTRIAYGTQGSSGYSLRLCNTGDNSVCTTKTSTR
Excerpt: Biological Example 2: Kallikrein Inhibition Assay Utilizing a Quenched AMC Peptide Substrate
A fluorescence intensity (FLINT) based assay was used to monitor inhibition of human plasma kallikrein. The peptide substrate, Z-Gly-Pro-Arg-AMC (Purchased from Bachem; Catalog #1-1150) was chosen based on its relatively low KM for kallikrein which enables running the assay at lower substrate concentrations to control background fluorescence.
The Kallikrein FLINT assay was used with the following Z-Gly-Pro-Arg-AMC assay buffer: 50 mM Tris, pH 7.5, 100 mM NaCl, 5 mM CaCl2), 0.1 mg/mL BSA, 0.03% CHAPS. Assay buffer was prepared by mixing all ingredients fresh. 2× Z-Gly-Pro-Arg-AMC peptide substrate was prepared by diluting 10 mM stock into 1× assay buffer for a 100 μM working concentration (50 μM final concentration). The 2× kallikrein stock solution was prepared by diluting 14.76 μM stock in 1× assay buffer for a 4 nM working stock solution (2 nM final concentration).
Test compound(s) were run in an 11-point, 3-fold serial dilution with a final top compound concentration of 1 μM. Final DMSO in assay was 2%. Plasma kallikrein was pre-incubated for 30-minute with compound and then 50 μM substrate was added to initiate the reaction. The assay was run with kinetic (KIN) reads at 5 min intervals over 30 minutes. The time course was linear using 2 nM kallikrein greater than 30 minutes. More specifically, the assay was run as follows: • 100 nL of 0.1 mM test compound was dispensed into black 384-well non-binding Greiner BioOne 784900 plate for 1 μM final concentration; • 5 μL of 1× assay buffer was dispensed to columns 24 (low control) and 5 μL 2× human kallikrein enzyme solution was dispensed to columns 1-23 (column 23 high control); • the plate was centrifuged with a “cover” plate at 500 rpm for 1 min • the plate was pre-incubated for 30 minutes at room temperature with plate covered; • 5 μL of 2× Z-Gly-Pro-Arg-AMC peptide substrate was dispensed into the entire plate, columns 1-24; • the plate was centrifuged with a “cover” plate at 500 rpm for 1 min; the plate was read monitoring fluorescence intensity on the BMG PHERAStar at room temperature, using fluorescence module 340 nm/440 nm.
Percent inhibition (IC50) curves were generated per compound tested, and data was analyzed using a 4-parameter logistic fit using GeneData Screener. The relative fluorescence unit (RFU) values were normalized to percent inhibition using the following equation: % inhibition=((HC−LC)−(compound−LC)/(HC−LC))*100 where LC—low control=mean signal of human kallikrein enzyme or 100% inhibition of human kallikrein enzyme; HC—high control=mean signal of […]+Z-Gly-Pro-Arg-AMC peptide substrate with DMSO only.
An 11-point dose response curve for the test compound(s) was generated using GENDATA to determine IC50 value based on the following equation: Y=Bottom+(Top−Bottom)/(1+10^((log IC50−X)*HillSlope)) • where Y is the % inhibition in the presence of X inhibitor concentration, Top=high control=mean signal of human kallikrein enzyme+Z-Gly-Pro-Arg-AMC peptide substrate with DMSO only; Bottom=low control−mean signal of no human kallikrein enzyme or 100% inhibition of human kallikrein enzyme; HillSlope—Hill coefficient; and IC50=concentration of compound with 50% inhibition in relation to top/high control.
as §1

The mark [1] stands for this setting: cells that print μM themselves in the nM column.
Where [2] appears, read: cells that print μM themselves in the nM column, same assay conditions.
[3] abbreviates: 30 min preincubation, 5Fam-KLTRAETV-K5Tamra substrate 15 μM final, kinetic reads.

Read-outs that look alike come from different tables or passages of the source.

As for `Nc1ccc(-c2cnc([C@@H]3CCc4c5c(cc(=O)n43)-c3c(ccc(Cl)c3F)CC3(CC3)N(CCO)C5=O)[nH]2)c(F)n1` (single isomer, unassigned) [Compound 9, (S*)-12-(5-(6-amino-2-fluoropyridin-3-yl)-1H-imidazol-2-yl)-7-chloro-8-fluoro-2-(2-hydroxyethyl)-13,14-dihydro-2H-spiro[benzo[5,6]azocino[4,3-g]indolizine-3,1′-cyclopropane]-1,10(4H,12H)-dione], on Factor XIa (setting [1]), the Ki turned out to be 3.29 µM. Also, the IC50 at Factor XIa (setting [2]) was 6.58 µM; against human plasma kallikrein it was more than 10 µM.

`Nc1ccc(-c2cnc([C@H]3CCc4c5c(cc(=O)n43)-c3c(ccc(Cl)c3F)CC3(CC3)N(CCO)C5=O)[nH]2)c(F)n1` (single isomer, unassigned) [Compound 10, (R*)-12-(5-(6-amino-2-fluoropyridin-3-yl)-1H-imidazol-2-yl)-7-chloro-8-fluoro-2-(2-hydroxyethyl)-13,14-dihydro-2H-spiro[benzo[5,6]azocino[4,3-g]indolizine-3,1′-cyclopropane]-1,10(4H,12H)-dione]: the IC50 on Factor XIa (setting [2]) is 1.85 µM; on human plasma kallikrein, more than 10 µM. In addition, on Factor XIa, the Ki is 0.926 µM.

With `Nc1ccc(-c2cnc([C@@H]3CCc4c5c(cc(=O)n43)-c3c(ccc(Cl)c3F)CC3(CC3)N(CCO)C5=O)[nH]2)c(F)n1` (single isomer, unassigned) [Compound 11, (S*)-12-(5-(6-amino-2-fluoropyridin-3-yl)-1H-imidazol-2-yl)-7-chloro-8-fluoro-2-(2-hydroxyethyl)-13,14-dihydro-2H-spiro[benzo[5,6]azocino[4,3-g]indolizine-3,1′-cyclopropane]-1,10(4H,12H)-dione], the IC50 on Factor XIa (setting [2]) is 1.17 µM; against human plasma kallikrein, more than 10 µM. Also, the Ki at Factor XIa is 0.588 µM.

Consider `Nc1ccc(-c2cnc([C@H]3CCc4c5c(cc(=O)n43)-c3c(ccc(Cl)c3F)CC3(CC3)N(CCO)C5=O)[nH]2)c(F)n1` (single isomer, unassigned) [Compound 12, (R*)-12-(5-(6-amino-2-fluoropyridin-3-yl)-1H-imidazol-2-yl)-7-chloro-8-fluoro-2-(2-hydroxyethyl)-13,14-dihydro-2H-spiro[benzo[5,6]azocino[4,3-g]indolizine-3,1′-cyclopropane]-1,10(4H,12H)-dione], for which the figures for the IC50 at Factor XIa (setting [3]) and against human plasma kallikrein were 0.0692 µM and more than 10 µM, respectively. Besides, on Factor XIa, the Ki came to 0.0346 µM.

In the case of `O=C1NC2(CC2)Cc2ccc(Cl)c(F)c2-c2cc(=O)n3c(c21)CC[C@H]3c1ncc(-c2ccc3[nH]ccc3c2)[nH]1` (single isomer, unassigned) [Compound 13, (S*)-12-(5-(1H-indol-5-yl)-1H-imidazol-2-yl)-7-chloro-8-fluoro-13,14-dihydro-2H-spiro[benzo[5,6]azocino[4,3-g]indolizine-3,1′-cyclopropane]-1,10(4H,12H)-dione], the IC50 worked out at 0.002 µM on Factor XIa (setting [3]) and 0.07 µM against human plasma kallikrein. For the same compound, at Factor XIa, the Ki was found to be 0.001 µM.

As to `O=C1NC2(CC2)Cc2ccc(Cl)c(F)c2-c2cc(=O)n3c(c21)CC[C@@H]3c1ncc(-c2ccc3[nH]ccc3c2)[nH]1` (single isomer, unassigned) [Compound 14, (R*)-12-(5-(1H-indol-5-yl)-1H-imidazol-2-yl)-7-chloro-8-fluoro-13,14-dihydro-2H-spiro[benzo[5,6]azocino[4,3-g]indolizine-3,1′-cyclopropane]-1,10(4H,12H)-dione], the Ki on Factor XIa (setting [1]) is 1.02 µM. Further, the IC50 at Factor XIa (setting [2]) is 2.03 µM; at human plasma kallikrein it was more than 10 µM.

As for `O=C1NC2(CC2)Cc2ccc(Cl)c(F)c2-c2cc(=O)n3c(c21)CC[C@H]3c1ncc(-c2ccc3[nH]ccc3c2)[nH]1` (single isomer, unassigned) [Compound 16, (S*)-12-(5-(1H-indol-5-yl)-1H-imidazol-2-yl)-7-chloro-8-fluoro-13,14-dihydro-2H-spiro[benzo[5,6]azocino[4,3-g]indolizine-3,1′-cyclopropane]-1,10(4H,12H)-dione], the IC50 at Factor XIa (setting [2]) was 1.07 µM; at human plasma kallikrein it was more than 10 µM. Besides, on Factor XIa, the Ki turned out to be 0.535 µM.

Regarding `O=C1NC2(CC2)Cc2ccc(Cl)c(F)c2-c2cc(=O)n3c(c21)CC[C@@H]3c1ncc(-c2ccc3[nH]ccc3c2)[nH]1` (single isomer, unassigned) [Compound 17, (R*)-12-(5-(1H-indol-5-yl)-1H-imidazol-2-yl)-7-chloro-8-fluoro-13,14-dihydro-2H-spiro[benzo[5,6]azocino[4,3-g]indolizine-3,1′-cyclopropane]-1,10(4H,12H)-dione], the IC50 is 1.59 µM on Factor XIa (setting [2]) and more than 10 µM on human plasma kallikrein. At Factor XIa, the Ki stood at 0.796 µM.

With `CC1(C)Cc2ccc(Cl)c(F)c2-c2cc(=O)n3c(c2C(=O)N1)CC[C@H]3c1ncc(-c2ccc(N)nc2F)[nH]1` (single isomer, unassigned) [Compound 20, (S*)-12-(5-(6-amino-2-fluoropyridin-3-yl)-1H-imidazol-2-yl)-7-chloro-8-fluoro-3,3-dimethyl-3,4,13,14-tetrahydrobenzo[5,6]azocino[4,3-g]indolizine-1,10(2H,12H)-dione], the Ki on Factor XIa (setting [1]) is 3.83 µM. In addition, the IC50 on Factor XIa (setting [2]) was 7.65 µM; on human plasma kallikrein it was more than 10 µM.
